As usually defined, the IC50 is the concentration that gives 50% inhibition. A higher IC50 goes with weaker potency in that assay. A word on the Ki: it is a measure of affinity in units of concentration, obtained from inhibition or displacement.

The target of one assay is T1, Pancreatic triacylglycerol lipase (Homo sapiens, UniProt P16233).
T1 sequence (P16233 whole entry): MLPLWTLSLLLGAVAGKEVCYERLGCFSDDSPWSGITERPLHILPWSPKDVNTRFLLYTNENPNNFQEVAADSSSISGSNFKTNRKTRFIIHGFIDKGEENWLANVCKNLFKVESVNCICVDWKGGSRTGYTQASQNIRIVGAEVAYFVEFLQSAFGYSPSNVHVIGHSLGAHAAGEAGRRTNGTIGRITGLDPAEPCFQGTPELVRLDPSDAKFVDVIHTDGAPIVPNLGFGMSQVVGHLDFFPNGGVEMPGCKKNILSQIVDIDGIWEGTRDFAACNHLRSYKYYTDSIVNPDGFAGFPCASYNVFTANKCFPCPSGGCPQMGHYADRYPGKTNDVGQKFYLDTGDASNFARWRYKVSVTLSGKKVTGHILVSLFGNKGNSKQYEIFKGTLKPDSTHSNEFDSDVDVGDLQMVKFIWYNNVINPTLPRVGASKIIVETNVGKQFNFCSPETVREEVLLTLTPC
Put plainly: Negative allosteric modulator activity at human Pancreatic lipase using DDAO-ol as fluorescent substrate preincubated for 3 mins followed by substrate addition measured after 20 mins by microplate reader assay.
Settings: not given
On to `COc1ccccc1C(=O)Nc1ccc(Oc2ccc(Cl)cc2)c(Cl)c1`, for which the IC50 turned out to be 16.7 µM.

As for `O=C(Nc1ccc(Oc2ccc(Cl)cc2)c(Cl)c1)c1ccccc1O`, the IC50 stood at 6.75 µM.

`O=C(Nc1ccc(Oc2ccc(Cl)cc2)c(Cl)c1)c1cc(Cl)cc(Cl)c1O` returned an IC50 of 1.63 µM.

Compound `O=C(Nc1ccc(Oc2ccc(Cl)cc2)c(Cl)c1)c1ccccc1` yielded a concentration for half-maximal inhibition (IC50) of 10.5 µM.

`O=C(Nc1ccc(Oc2ccc(Cl)cc2)c(Cl)c1)c1ccccc1F` registered an IC50 of 23.7 µM.

As to `O=C(Nc1ccc(Oc2ccc(Cl)cc2)c(Cl)c1)c1cc(Br)cc(Br)c1O`, the midpoint of inhibition, the IC50, lay at 2.13 µM.

On to `CC(C)=CC[C@]12Oc3cc(O)c([C@H]4C=C(C)C[C@H](c5ccc(O)cc5O)[C@H]4C(=O)c4ccc(O)cc4O)c(O)c3C(=O)[C@@]1(O)Oc1cc(O)ccc12` [SANGGENON C], for which the IC50 was 3.28 µM.

Compound `CCCNc1ccc(C(=O)Nc2ccc(Oc3ccc(Cl)cc3)c(Cl)c2)c(O)c1` had an IC50 of 5.99 µM.

For the compound `CC(C)Oc1ccc(Oc2ccc(NC(=O)c3ccccc3O)cc2)cc1`, the IC50 was determined as 9.24 µM.

As for `O=C(Nc1ccc(Oc2ccc(Cl)cc2)c(Cl)c1)c1ccccc1OC(F)(F)F`, the IC50 stood at 15.8 µM.

In turn, `O=C(Nc1ccc(Oc2ccc(Cl)cc2)c(Cl)c1)c1ccccc1Br` had an IC50 of 11 µM.

Turning to `O=C(Nc1ccc(Oc2ccc(Cl)cc2)c(Cl)c1)c1cc(I)cc(I)c1O` [RAFOXANIDE], half-maximal inhibition (IC50) required 2.52 µM.

Take `O=C(Nc1ccc(Oc2ccc(Cl)cc2)c(Cl)c1)c1ccccc1Cl`: the IC50 amounted to 15 µM.

`O=C(Nc1ccc(Oc2ccc(Cl)cc2)c(Cl)c1)c1ccc(Cl)cc1O` had an IC50 of 12.4 µM.

`Nc1ccc(C(=O)Nc2ccc(Oc3ccc(Cl)cc3)c(Cl)c2)c(O)c1` gave an IC50 of 6.27 µM.

Take `O=C(Nc1ccc(Oc2ccc(Cl)cc2)c(Cl)c1)c1cc(F)cc(F)c1O`: the midpoint of inhibition, the IC50, lay at 1.86 µM.

`Cc1ccccc1C(=O)Nc1ccc(Oc2ccc(Cl)cc2)c(Cl)c1` came in with an IC50 of 27.4 µM.

In turn, `O=C(Nc1ccc(Oc2ccccc2)cc1)c1ccccc1O` yielded an IC50 of 19.1 µM.

In the case of `CCCCCCNc1ccc(C(=O)Nc2ccc(Oc3ccc(Cl)cc3)c(Cl)c2)c(O)c1`, the midpoint of inhibition, the IC50, lay at 12.4 µM.

`COc1ccc(C(=O)Nc2ccc(Oc3ccc(Cl)cc3)c(Cl)c2)c(O)c1` had an IC50 of 10 µM.

`COc1ccc(Oc2ccc(NC(=O)c3ccccc3O)cc2)cc1`: half-maximal inhibition (IC50) was put at 32.7 µM.

Regarding `CCCOc1ccccc1C(=O)Nc1ccc(Oc2ccc(Cl)cc2)c(Cl)c1`, 18.3 µM corresponded to half-maximal inhibition (IC50).

As for `Cc1ccc(Oc2ccc(NC(=O)c3ccccc3O)cc2)cc1`, the IC50 worked out at 12 µM.

On to `O=C(Nc1ccc(Oc2ccccc2)c(Cl)c1)c1ccccc1O`, for which the half-maximal inhibitory concentration (IC50) was found to be 9.96 µM.

`O=C(Nc1ccc(Oc2ccc(Cl)cc2)c(Cl)c1)c1ccc(F)cc1O` returned an IC50 of 4.27 µM.

Compound `O=C(Nc1ccc(O)cc1)c1ccccc1O` [OSALMID] showed an IC50 above 500 µM.

`O=C(Nc1ccc(Oc2ccc(F)cc2)c(F)c1)c1ccccc1O` registered an IC50 of 11.4 µM.

Turning to `O=C(Nc1ccc(Oc2ccc(Cl)cc2)cc1)c1ccccc1O`, 20.4 µM corresponded to half-maximal inhibition (IC50).

`COc1cccc(O)c1C(=O)Nc1ccc(Oc2ccc(Cl)cc2)c(Cl)c1` showed an IC50 of 26.3 µM.

In a further assay the target is T1, Pancreatic triacylglycerol lipase. Nature of the assay: Negative allosteric modulator activity at human Pancreatic lipase assessed as inhibition of PL-mediated DDAO-ol hydrolysis by measuring inhibition constant using DDAO-ol as fluorescent substrate by Lineweaver-Burk plot analysis.
Settings: not given
Take `O=C(Nc1ccc(Oc2ccc(Cl)cc2)c(Cl)c1)c1cc(Cl)cc(Cl)c1O`: the Ki turned out to be 1.7 µM.

`O=C(Nc1ccc(Oc2ccc(Cl)cc2)c(Cl)c1)c1cc(F)cc(F)c1O`: the inhibitory constant (Ki) stood at 1.67 µM.

For another assay, the target named is T2, Pancreatic triacylglycerol lipase (Homo sapiens) (UniProt P16233).
T2 sequence (whole entry): T1 sequence (P16233 whole entry)
Put plainly: Binding affinity to human Pancreatic lipase assessed as Stem-Volmer quenching constant by fluorescence quenching assay based spectrophotometer analysis. Conditions: filed as negative allosteric modulator.
Consider `O=C(Nc1ccc(Oc2ccc(Cl)cc2)c(Cl)c1)c1cc(Cl)cc(Cl)c1O`, for which the KSV is 3.39 10^6L/mol.

In the case of `O=C(Nc1ccc(Oc2ccc(Cl)cc2)c(Cl)c1)c1cc(F)cc(F)c1O`, the KSV was 3.61 10^6L/mol.

The target in the next assay is T2, Pancreatic triacylglycerol lipase (Homo sapiens). Put plainly: Binding affinity to human Pancreatic lipase assessed as quenching constant by fluorescence quenching assay based spectrophotometer analysis. Conditions: filed as negative allosteric modulator.
Take `O=C(Nc1ccc(Oc2ccc(Cl)cc2)c(Cl)c1)c1cc(Cl)cc(Cl)c1O`: the Kq is 3.39 10^14L/mol/s.

`O=C(Nc1ccc(Oc2ccc(Cl)cc2)c(Cl)c1)c1cc(F)cc(F)c1O`: the Kq is 3.61 10^14L/mol/s.

In the next assay the target is T1, Pancreatic triacylglycerol lipase. Nature of the assay: Inhibition of Pancreatic lipase (unknown origin) using 4-MUO as fluorescent substrate preincubated for 3 mins followed by substrate addition measured after 20 mins by microplate reader assay.
Settings: not given
In the case of `CC1(C)CC[C@]2(C(=O)O)CC[C@]3(C)C(=CC[C@@H]4[C@@]5(C)CCC(=O)C(C)(C)[C@@H]5CC[C@]43C)[C@@H]2C1` [OLEANONIC ACID], the IC50 stood at 0.49 µM.

The values are drawn from ChEMBL document CHEMBL5325485, “Design, synthesis and biological evaluation of salicylanilides as novel allosteric inhibitors of human pancreatic lipase” (Bioorg Med Chem, 2023).
